In patent US20240132464A1, “HETEROCYCLIC COMPOUNDS AS E3 LIGASE INHIBITORS” (Accutar Biotechnology Inc., priority 2022, published 2024):

Biological target: T1, GID4 (Uniprot ID: Q81VV7, residues 124-289) (Homo sapiens, UniProt Q8IVV7)
T1 construct: GID4 (Uniprot ID: Q81VV7, residues 124-289)
T1 sequence (Q8IVV7 124-289): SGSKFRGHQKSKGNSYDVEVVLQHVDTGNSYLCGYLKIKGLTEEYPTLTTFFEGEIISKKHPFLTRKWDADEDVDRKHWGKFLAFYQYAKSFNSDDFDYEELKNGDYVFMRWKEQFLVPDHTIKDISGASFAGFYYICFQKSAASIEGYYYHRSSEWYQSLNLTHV
Experiment: GID4 competitive binding assay (AlphaScreen, GID4/degron peptide PGLW)
Conditions: 24 nM GID4, 48 nM biotinylated degron peptide PGLW, 4° C., read-out: IC50 (Inhibition of GID4/Degron binding by test compounds)
Summary of the method: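 His-tagged human GID4 (residues 124-289, 24 nM) pre-incubated 2 h at 4 °C with 48 nM biotinylated PGLW peptide and compound in HEPES pH 7.5 buffer, 2% DMSO (final). AlphaScreen streptavidin donor/Ni-NTA acceptor beads added for 1 h; IC50 from nonlinear fit of % inhibition versus DMSO.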

| SMILES | IC50 |
| --- | --- |
| Nc1cc(N2CCCC(n3cnc4ccccc43)C2)nc(N)n1 (stereo not drawn) [Compound 260, 6-(3-(1H-benzo[d]imidazol-1-yl)piperidin-1-yl)pyrimidine-2,4-diamine] | > 5000 nM |
| CNc1cc(N2CCOC(c3ccccc3)C2)nc(N)n1 (single isomer, unassigned) [Compound 108, (R/S)-N4-methyl-6-(2-phenylmorpholino)pyrimidine-2,4-diamine] | > 5000 nM |
| CNc1cc(N2CCCC(c3nnc4ccccn34)C2)nc(N)n1 (stereo not drawn) [Compound 180, 6-(3-([1,2,4]triazolo[4,3-a]pyridin-3-yl)piperidin-1-yl)-N4-methylpyrimidine-2,4-diamine] | > 5000 nM |
| Nc1nc2c(c(N3CCCC(c4nnc5ccccn45)C3)n1)SCC2 (stereo not drawn) [Compound 191, 4-(3-([1,2,4]triazolo[4,3-a]pyridin-3-yl)piperidin-1-yl)-6,7-dihydrothieno[3,2-d]pyrimidin-2-amine] | > 5000 nM |
| CC(C)c1cc(N2CCNC(c3cnc4ccccn34)C2)c2cc[nH]c2n1 (racemic) [Compound 371, (R/S)-3-(4-(6-isopropyl-1H-pyrrolo[2,3-b]pyridin-4-yl)piperazin-2-yl)imidazo[1,2-a]pyridine] | < 500 nM |
| Brc1ccccc1C1CN(c2ccnc3[nH]cnc23)CCN1 (single isomer, unassigned) [Compound 35, (R/S)-7-(3-(2-bromophenyl)piperazin-1-yl)-3H-imidazo[4,5-b]pyridine] | 500 to 5000 nM |
| CN1CCC(NC(=O)c2ccc(-c3cc(O)c4ncccc4c3)cc2)CC1 [Compound 297, 4-(8-hydroxyquinolin-6-yl)-N-(1-methylpiperidin-4-yl)benzamide] | < 500 nM |
| Nc1nc(NCC2CC2)cc(N2CCN[C@@H](c3ccccc3Br)C2)n1 (racemic) [Compound 112, (S/R)-6-(3-(2-bromophenyl)piperazin-1-yl)-N4-(cyclopropylmethyl)pyrimidine-2,4-diamine] | < 500 nM |
| CCOc1ccc(Br)c(C2CN(c3cc(N)nc(N)n3)CCN2)c1 (single isomer, unassigned) [Compound 23, (R/S)-6-(3-(2-bromo-5-ethoxyphenyl)piperazin-1-yl)pyrimidine-2,4-diamine] | 500 to 5000 nM |
| Cc1c(-c2ccc(Br)c([C@H]3CN(c4cc(N)nc(N)n4)CCN3)c2)cnn1C (racemic) [Compound 5, (S/R)-6-(3-(2-bromo-5-(1,5-dimethyl-1H-pyrazol-4-yl)phenyl)piperazin-1-yl)pyrimidine-2,4-diamine] | < 500 nM |
| Nc1nc(C2CC2)cc(N2CCN[C@H](c3ccccc3Br)C2)n1 (stereo in doubt) [Compound 132, (R/S)-4-(3-(2-bromophenyl)piperazin-1-yl)-6-cyclopropylpyrimidin-2-amine] | 500 to 5000 nM |
| Nc1nc(N2CCNC(c3ccccc3Br)C2)c2cc[nH]c2n1 (single isomer, unassigned) [Compound 56, (R/S)-4-(3-(2-bromophenyl)piperazin-1-yl)-7H-pyrrolo[2,3-d]pyrimidin-2-amine] | 500 to 5000 nM |
| CC(C)c1cc(N2CCNC(c3nnc4ccccn34)C2)nc(N)n1 (stereo not drawn) [Compound 188, 4-(3-([1,2,4]triazolo[4,3-a]pyridin-3-yl)piperazin-1-yl)-6-isopropylpyrimidin-2-amine] | > 5000 nM |
| Nc1cc(N2CCN(CCO)[C@H](c3ccccc3Br)C2)nc(N)n1 (stereo in doubt) [Compound 67, (R/S)-2-(2-(2-bromophenyl)-4-(2,6-diaminopyrimidin-4-yl)piperazin-1-yl)ethan-1-ol] | 500 to 5000 nM |
| Nc1cc(N2CCCC(c3cnc4ncccn34)C2)nc(N)n1 (stereo not drawn) [Compound 241, 6-(3-(imidazo[1,2-a]pyrimidin-3-yl)piperidin-1-yl)pyrimidine-2,4-diamine] | > 5000 nM |
| CC(C)c1cc(N2CCNC(c3ccc(O)cc3Br)C2)nc(N)n1 (stereo not drawn) [Compound 164, 4-(4-(2-amino-6-isopropylpyrimidin-4-yl)piperazin-2-yl)-3-bromophenol] | < 500 nM |
| CNc1cc(N2CCN(C)[C@@H](c3ccccc3Br)C2)nc(N)n1 (stereo in doubt) [Compound 155, (S/R)-6-(3-(2-bromophenyl)-4-methylpiperazin-1-yl)-N4-methylpyrimidine-2,4-diamine] | < 500 nM |
| Cc1nc(N)nc(N2CCCC(c3ccn[nH]3)C2)c1Br (stereo not drawn) [Compound 216, 4-(3-(1H-pyrazol-5-yl)piperidin-1-yl)-5-bromo-6-methylpyrimidin-2-amine] | > 5000 nM |
| CN(C)[C@H]1C[C@@H](NC(=O)c2ccc(-c3cc(O)c4ncccc4c3)cc2)C1 [Compound 279, N-(cis-3-(dimethylamino)cyclobutyl)-4-(8-hydroxyquinolin-6-yl)benzamide] | < 500 nM |
| CCc1cc(N2CCNC(c3cnc4ccccn34)C2)nc(N)n1 (single isomer, unassigned) [Compound 27, (R/S)-4-ethyl-6-(3-(imidazo[1,2-a]pyridin-3-yl)piperazin-1-yl)pyrimidin-2-amine] | > 5000 nM |
| CC(C)c1cc(N2CCNC(c3ccccc3Cl)C2)nc(N)n1 (stereo not drawn) [Compound 175, 4-(3-(2-chlorophenyl)piperazin-1-yl)-6-isopropylpyrimidin-2-amine] | 500 to 5000 nM |
| Nc1nccc2ccc(-c3cccc(C(=O)N4CCCC4)c3)cc12 [Compound 353, (3-(1-aminoisoquinolin-7-yl)phenyl)(pyrrolidin-1-yl)methanone] | 500 to 5000 nM |
| Cc1cc(N2CCCC(Nc3ccc(=O)[nH]c3)C2)nc(N)n1 (stereo not drawn) [Compound 202, 5-((1-(2-amino-6-methylpyrimidin-4-yl)piperidin-3-yl)amino)pyridin-2(1H)-one] | > 5000 nM |
| Nc1nc(N2CCOC(c3ccccc3Br)C2)c2cc[nH]c2n1 (single isomer, unassigned) [Compound 39, (R/S)-4-(2-(2-bromophenyl)morpholino)-7H-pyrrolo[2,3-d]pyrimidin-2-amine] | > 5000 nM |
| COC(=O)c1ccc(Br)c(C2CN(c3cc(N)nc(N)n3)CCN2)c1 (stereo not drawn) [Compound 38, methyl 4-bromo-3-(4-(2,6-diaminopyrimidin-4-yl)piperazin-2-yl)benzoate] | < 500 nM |

The remaining lines, values ahead:

| IC50 | SMILES |
| --- | --- |
| > 5000 nM | CN(C)CCNC(=O)c1c2cc(-c3ccc4ccnc(N)c4c3)ccc2nn1C [Compound 360, 5-(1-aminoisoquinolin-7-yl)-N-(2-(dimethylamino)ethyl)-2-methyl-2H-indazole-3-carboxamide] |
| < 500 nM | CC(C)c1cc(N2CCNC(c3cc(C(F)(F)F)ccc3Br)C2)nc(N)n1 (single isomer, unassigned) [Compound 13, (R/S)-4-(3-(2-bromo-5-(trifluoromethyl)phenyl)piperazin-1-yl)-6-isopropylpyrimidin-2-amine] |
| 500 to 5000 nM | CC(C)c1cc(N2CCN[C@@H](c3cc(C(F)(F)F)ccc3Br)C2)nc(N)n1 (racemic) [Compound 14, (S/R)-4-(3-(2-bromo-5-(trifluoromethyl)phenyl)piperazin-1-yl)-6-isopropylpyrimidin-2-amine] |
| 500 to 5000 nM | CN(C)CCNC(=O)c1csc2ccc(-c3ccc4ccnc(N)c4c3)cc12 [Compound 355, 5-(1-aminoisoquinolin-7-yl)-N-(2-(dimethylamino)ethyl)benzo[b]thiophene-3-carboxamide] |
| < 500 nM | CN1CCN(C(=O)c2ccc(Br)c(C3CN(c4cc(N)nc(N)n4)CCN3)c2)CC1 (single isomer, unassigned) [Compound 15, (R/S)-(4-bromo-3-(4-(2,6-diaminopyrimidin-4-yl)piperazin-2-yl)phenyl)(4-methylpiperazin-1-yl)methanone] |
| < 500 nM | Cc1c(-c2ccc(Br)c(C3CN(c4cc(C(C)C)nc(N)n4)CCN3)c2)cnn1C (single isomer, unassigned) [Compound 6, R or S-4-(3-(2-bromo-5-(1,5-dimethyl-1H-pyrazol-4-yl)phenyl)piperazin-1-yl)-6-isopropylpyrimidin-2-amine] |
| 500 to 5000 nM | Nc1nc(N2CCN[C@@H](c3ccccc3Br)C2)c2[nH]ccc2n1 (racemic) [Compound 43, (S/R)-4-(3-(2-bromophenyl)piperazin-1-yl)-5H-pyrrolo[3,2-d]pyrimidin-2-amine] |
| 500 to 5000 nM | Nc1nc(C2CC2)cc(N2CCNC(c3cnc4ccccn34)C2)n1 (single isomer, unassigned) [Compound 103, (S/R)-4-cyclopropyl-6-(3-(imidazo[1,2-a]pyridin-3-yl)piperazin-1-yl)pyrimidin-2-amine] |
| < 500 nM | Nc1nc(NC2CC2)cc(N2CCO[C@@H](c3ccccc3Br)C2)n1 (stereo in doubt) [Compound 98, (S/R)-6-(2-(2-bromophenyl)morpholino)-N4-cyclopropylpyrimidine-2,4-diamine] |
| < 500 nM | CN(C)CCCCNC(=O)c1ccc(-c2cc(O)c3ncccc3c2)cc1 [Compound 289, N-(4-(dimethylamino)butyl)-4-(8-hydroxyquinolin-6-yl)benzamide] |
| 500 to 5000 nM | CNc1cc(N2CCNC(c3cnc4ccccn34)C2)nc(N)n1 (stereo not drawn) [Compound 92, 6-(3-(imidazo[1,2-a]pyridin-3-yl)piperazin-1-yl)-N4-methylpyrimidine-2,4-diamine] |
| 500 to 5000 nM | O=C(c1cccc(-c2ccc3c(=O)[nH]ccc3c2)c1)N1CCCC1 [Compound 352, 6-(3-(pyrrolidine-1-carbonyl)phenyl)isoquinolin-1(2H)-one] |
| < 500 nM | CC(C)c1cc(N2CCCC(n3cnc4ccccc43)C2)nc(N)n1 (stereo not drawn) [Compound 256, 4-(3-(1H-benzo[d]imidazol-1-yl)piperidin-1-yl)-6-isopropylpyrimidin-2-amine] |
| 500 to 5000 nM | CC(C)c1cc(N2CCCC(c3nnc4ccccn34)C2)nc(N)n1 (stereo not drawn) [Compound 194, 4-(3-([1,2,4]triazolo[4,3-a]pyridin-3-yl)piperidin-1-yl)-6-isopropylpyrimidin-2-amine] |
